Source: patent US11591323B2, “Muscarinic agonists as non-steroidal and non-opioid analgesics and methods of use thereof” (Barry University, priority 2019, dated 2023)
Entries after “also recorded” stand apart in the source; their conditions may differ.

Legend:
Format in all cases: cell-based
[1] = system: submaxillary gland (rich in M3); assay: accumulation of IPX in dissipated rat submaxillary gland; settings: in words
Method: (§1) Effects of compounds 6A and 7A were then measured ex vivo in dissipated rat tissues (FIG. 5). Accumulation of IPX was measured in dissipated brain cortex (rich in M1 & M3), submaxillary gland (M1 & M3), and ventral tegmental area (M5). Native tissues express about 10-times less muscarinic receptors than CHO cell lines. Accumulation of cAMP was measured in cerebellum (M2) and striatum (M4).
Rat dissipated tissues: Suspension of dissipated tissues from rat brain cortex, cerebellum, striatum, ventral tegmental area (VTA) and submaxillary glands was prepared as described previously in supplementary methods. Adult 8-weeks old male Wistar rats were scarified by cervical dislocation in accordance with current legislative and guidelines under permission of Czech Ministry of Agriculture 16OZ23113/2017-17214. Tissues were dissected immediately. Submaxillary glands were minced by scissors. Tissues were dispersed by incubation for 15 min at 37° C. in KHB supplemented with trypsin and trituration every 5 min. Large undissipated parts were removed by cell mesh. […]
Measurements of the production of cAMP and inositol phosphates: Levels of second messengers cAMP and inositol phosphates were determined in radiochemical chromatography assays as described previously. […] Samples were applied to alumina columns (1.5 g of alumina per column), washed with 2 ml ammonium acetate (pH=7.0) and eluted from columns with 4 ml ammonium acetate and measured by liquid scintillation spectrometry. […] After separation of water and organic phases, 0.6 ml of water phase was applied to Dowex columns (1.5 g of Dowex per column), washed by 20 ml of 60 mM ammonium formate/5 mM sodium borate buffer and eluted from columns with 4 ml of 1M ammonium formate/0.1 formic acid buffer and measured by liquid scintillation spectrometry.
To exclude the possibility that the observed effects of compounds 6A and 7A are the result of overexpression in the heterologous system, functional response to the compounds was measured ex vivo in dissipated native rat tissues. […] Accumulation of cAMP was measured in M2-rich cerebellum and M4-rich striatum.

striatum (M4 rich) = assay: forskolin-stimulated cAMP in dissipated rat striatum; settings: in words
Method: as §1
Rat dissipated tissues: Suspension of dissipated tissues from rat brain cortex, cerebellum, striatum, ventral tegmental area (VTA) and submaxillary glands was prepared as described previously in supplementary methods. Adult 8-weeks old male Wistar rats were scarified by cervical dislocation in accordance with current legislative and guidelines under permission of Czech Ministry of Agriculture 16OZ23113/2017-17214. Tissues were dissected immediately. Submaxillary glands were minced by scissors. Tissues were dispersed by incubation for 15 min at 37° C. in KHB supplemented with trypsin and trituration every 5 min. Large undissipated parts were removed by cell mesh. Then dissipated tissues were centrifuged 3 min at 250×g, re-suspended in KHB and centrifuged again to remove trypsin. Suspension of dissipated tissues was used immediately in experiments. Two submaxillary glands or about 400 mg of brain tissue was used a 96-sample assay.
(§2) Measurements of the production of cAMP and inositol phosphates: Levels of second messengers cAMP and inositol phosphates were determined in radiochemical chromatography assays as described previously. To determine level of cAMP, cells in suspension were pre-incubated for 1 h with 0.4 μM [^3H]adenine, washed, and incubated for 10 min in the presence of isobutylmethylxanthine and 10 μM forskolin. […] Incubation was ended by addition of 0.2 ml of 2.5 M HCl to the samples. Samples were applied to alumina columns (1.5 g of alumina per column), washed with 2 ml ammonium acetate (pH=7.0) and eluted from columns with 4 ml ammonium acetate and measured by liquid scintillation spectrometry. […] For this purpose, new CHO cell lines stably expressing promiscuous G15 G-protein and M2 or M4 receptor were generated by transfection with pCMV/hygro vector and hygromycin selection. To determine the rate of formation of inositol phosphates IPX, suspended cells were pre-incubated with 0.1 μM [^3H]myo-inositol for 60 min, washed, and incubated with 10 mM LiCl for 15 min. […] The incubation was stopped by addition of 0.5 ml of chloroform methanol HCl mixture (2:1:0.1). After separation of water and organic phases, 0.6 ml of water phase was applied to Dowex columns (1.5 g of Dowex per column), washed by 20 ml of 60 mM ammonium formate/5 mM sodium borate buffer and eluted from columns with 4 ml of 1M ammonium formate/0.1 formic acid buffer and measured by liquid scintillation spectrometry.
To exclude the possibility that the observed effects of compounds 6A and 7A are the result of overexpression in the heterologous system, functional response to the compounds was measured ex vivo in dissipated native rat tissues. […] Accumulation of IPX was measured in brain cortex, submaxillary gland, and ventral tegmental area (VTA) as brain cortex and submaxillary glands are rich in M1 and in M3 receptors, respectively, and VTA is the only region expressing significant amount of M5 receptors. Accumulation of cAMP was measured in M2-rich cerebellum and M4-rich striatum.

M4 muscarinic receptor = target: T1, M4 muscarinic receptor (Homo sapiens, UniProt P08173); assay: stimulation of cAMP, M4 CHO cells (M4Gs); parameters: host or cells: CHO cells, stably transfected; settings: for RAi / E′MAX / τ / Δlog(τ/KA): M4Gs (↑cAMP); for RAi: Table 8, relative to carbachol; for E′MAX / τ: Table 8; for Δlog(τ/KA): Table 8, to carbachol
T1 sequence (P08173 1-479): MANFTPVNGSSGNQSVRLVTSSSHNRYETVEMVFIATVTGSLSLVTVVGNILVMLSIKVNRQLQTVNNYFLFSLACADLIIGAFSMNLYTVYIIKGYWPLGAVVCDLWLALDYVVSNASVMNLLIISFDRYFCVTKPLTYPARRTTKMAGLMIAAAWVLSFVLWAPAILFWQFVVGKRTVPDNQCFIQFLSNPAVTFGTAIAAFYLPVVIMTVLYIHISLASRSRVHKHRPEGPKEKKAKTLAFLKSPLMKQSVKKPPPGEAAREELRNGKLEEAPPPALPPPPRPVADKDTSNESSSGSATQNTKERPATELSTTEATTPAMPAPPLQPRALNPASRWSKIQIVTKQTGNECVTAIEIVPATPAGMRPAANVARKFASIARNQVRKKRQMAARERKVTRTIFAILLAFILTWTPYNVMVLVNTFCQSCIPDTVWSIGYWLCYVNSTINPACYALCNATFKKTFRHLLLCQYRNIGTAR
Method: To determine level of cAMP, cells in suspension were pre-incubated for 1 h with 0.4 μM [^3H]adenine, washed, and incubated for 10 min in the presence of isobutylmethylxanthine and 10 μM forskolin. […] Incubation was ended by addition of 0.2 ml of 2.5 M HCl to the samples. Samples were applied to alumina columns (1.5 g of alumina per column), washed with 2 ml ammonium acetate (pH=7.0) and eluted from columns with 4 ml ammonium acetate and measured by liquid scintillation spectrometry. […] The incubation was stopped by addition of 0.5 ml of chloroform methanol HCl mixture (2:1:0.1). After separation of water and organic phases, 0.6 ml of water phase was applied to Dowex columns (1.5 g of Dowex per column), washed by 20 ml of 60 mM ammonium formate/5 mM sodium borate buffer and eluted from columns with 4 ml of 1M ammonium formate/0.1 formic acid buffer and measured by liquid scintillation spectrometry.
as §2
For bi-phasic response, curves were inhibitory and stimulatory phase were fitted separately. Operational Model of Functional Agonism
[formula] where y is functional response at concentration of tested compound x, EMAX is maximal response of the system, KA is equilibrium dissociation constant and nH is slope factor. Eq. 5 was fitted to data from functional experiments. Eq. 5 was fitted to data by the two-step procedure described earlier. […] In the second step, Eq. 5 with EMAX fixed to the value determined in the first step was fitted to individual experimental data sets. Relative Intrinsic Activity

| Compound | accumulation of IPX [1] | Emax of inhibition of cAMP synthesis (striatum (M4 rich)) | forskolin-stimulated cAMP level (striatum (M4 rich)) | RAi (M4 muscarinic receptor) | E′MAX (M4 muscarinic receptor) | τ (M4 muscarinic receptor) | Δlog(τ/KA) (M4 muscarinic receptor) | EC50 (M4 muscarinic receptor) | Kd (M4 muscarinic receptor) |
| --- | --- | --- | --- | --- | --- | --- | --- | --- | --- |
| C1=CCN(Cc2cccs2)CC1.Cl [Compound 6A, 1-[(thiophen-2-yl)methyl]-1,2,3,6-tetrahydropyridin-1-ium chloride] | no increase in IPX levels | comparable to inhibition by carbachol | only a decrease in cAMP level | 0 |  |  |  |  |  |
| C[N+](C)(C)CCOC(N)=O [carbachol, reference compound] | profound accumulation of IPX |  | transient decrease in forskolin-stimulated cAMP level at nanomolar concentrations followed by an increase at micromolar concentrations; also recorded: transient decrease in forskolin-stimulated cAMP level at sub-micromolar concentrations followed by an increase at micromolar concentrations |  | 2.9 ± 0.2 fold increase | 1.9 ± 0.2 | 0 |  |  |
| C[N+]1(Cc2cccs2)CC=CCC1.[I-] (stereo not shown) [Compound 7A, 1-methyl-1-[(thiophen-2-yl)methyl]-1,2,3,6-tetrahydropyridin-1-ium iodide] | no increase in IPX levels | comparable to inhibition by carbachol | only a decrease in cAMP level | 0 |  |  |  |  |  |
| O=C1CCCN1CC#CCN1CCCC1 [oxotremorine, reference compound] |  |  |  | 3.58 ± 0.31 | 2.6 ± 0.2 fold increase | 1.3 ± 0.1 | −0.55 ± 0.06 | 2.75 µM | 6.31 µM |
